According to PubChem BioAssay AID720589 (Broad Institute, 2013):
Several values for one entry are separate records, joined by “and”; a condition that tells them apart may be missing. Equal entries are not always repeated.

Tested on: HepG2 viability, ATP luminescence (CellTiter-Glo), 72 h
Test: HepG2 hepatoma cell cytotoxicity, dose response, cytotoxicity control, CellTiter-Glo luminescence, cherry-pick, set 3 (AID 720589)

SMILES | AC35
O=C(Nc1ccc(Br)cc1)c1ccc(F)c(S(=O)(=O)N2CCN(c3ccccn3)CC2)c1 | 2.69 µM
CN1C/C(=C/c2ccsc2)C(=O)/C(=C/c2ccsc2)C1 | 13.7 µM
C[C@@H]1CN([C@@H](C)CO)S(=O)(=O)c2ccc(C#CC(C)(C)O)cc2O[C@H]1CN(C)Cc1ccc(-c2ccccc2)cc1 | 6.19 µM
C[C@H](CO)N1C[C@H](C)[C@H](CN(C)Cc2ccc(C(=O)Nc3ccccc3N)cc2)Oc2ccc(N(C)C)cc2CC1=O | 0.19 µM
C[C@@H]1CCCCO[C@H](CN(C)Cc2ccc(C(=O)Nc3ccccc3N)cc2)[C@@H](C)CN([C@H](C)CO)C(=O)c2cc(NS(=O)(=O)c3ccc(Cl)cc3)ccc2O1 | 9.81 µM
C[C@@H]1O[C@@H](O[C@H]2C[C@@H](O)[C@]3(CO)[C@@H]4C(CC[C@]3(O)C2)[C@@]2(O)CC[C@H](C3COC(=O)C3)[C@@]2(C)C[C@H]4O)[C@H](O)[C@H](O)[C@H]1O (some centres undefined) | 1.47 µM
O=c1c2ccccc2nc(/C=C/c2cc(Br)ccc2O)n1CCCO | 6.52 µM
CCCCNC1=CC(=O)C(=O)c2ccccc21 | 7.32 µM
CC(C)CC#Cc1ccc([C@@H]2[C@@H](CO)N3CCCCN(S(=O)(=O)c4ccc(F)cc4)C[C@H]23)cc1 | 12.7 µM
Cc1cc2c(C(C)C)c(O)c(O)c(C=O)c2c(O)c1-c1c(C)cc2c(C(C)C)c(O)c(O)c(C=O)c2c1O | 13.7 µM
CC(C)N1C/C(=C/c2ccsc2)C(=O)/C(=C/c2ccsc2)C1 | 11.7 µM
Cc1cc(C)c2sc(NNC(=O)c3ccc(S(=O)(=O)N4CCc5ccccc5C4)cc3)nc2c1 | 3.76 µM
C[C@]12CC[C@H]3[C@@H](CC[C@]4(O)C[C@@H](O)CC[C@]34C=O)[C@@]1(O)CC[C@@H]2C1=CC(=O)OC1 | 0.93 µM
COc1ccc(NC(=O)N2CCCCN3[C@H](CO)[C@H](c4ccc(C#CCC(C)C)cc4)[C@H]3C2)cc1 | 8.68 µM
C/C(=C\c1ccccc1)C(=O)N1CCC=CC1=O | 4.88 µM
CCN1/C(=C/C(C)=C/c2sc3ccccc3[n+]2CC)Sc2ccccc21 | 0.838 µM
O=C1c2ccccc2C(=O)c2cc(N3CCCCC3)ccc21 | 12.5 µM
CN(Cc1cnc2nc(N)nc(N)c2n1)c1ccc(C(=O)N[C@@H](CCC(=O)O)C(=O)O)cc1 | 0.0224 µM
C[C@H]1CN([C@@H](C)CO)C(=O)c2cccc(NC(=O)c3ccc(-c4nccs4)cc3)c2O[C@@H]1CN(C)Cc1ccc(C(=O)Nc2ccccc2N)cc1 | 4.1 µM
COc1ccc(S(=O)(=O)Nc2ccc3c(c2)C(=O)N([C@H](C)CO)C[C@@H](C)[C@@H](CN(C)Cc2ccc(C(=O)Nc4ccccc4N)cc2)O3)cc1 | 10.8 µM
Cc1nc(N)nc(N)c1-c1ccc(Cl)c(Cl)c1 | 0.557 µM

SMILES | AC35
O=C(N/N=C/c1cnc(N2CCCCC2)s1)c1ccc(C(F)(F)F)cc1 | 14.1 µM
C=C(C(=O)c1ccccc1)C(C(=C)C(=O)c1ccccc1)c1ccc(OC)cc1 | 8.69 µM
C[C@]12CC[C@H](O)C[C@H]1CC[C@@H]1[C@@H]2C[C@@H](O)[C@]2(C)[C@@H](C3=CC(=O)OC3)CC[C@]12O | 0.373 µM
C[C@@H]1CN([C@H](C)CO)C(=O)c2cccc(N(C)C)c2O[C@@H]1CN(C)Cc1ccc(C(=O)Nc2ccccc2N)cc1 | 3.05 µM
Oc1c(C(c2ccc(Cl)cc2)N2CCCC2)cc(Cl)c2cccnc12 (centres undefined) | 17.3 µM
C[C@@H]1CN([C@@H](C)CO)C(=O)c2cccc(NS(=O)(=O)c3ccc(Cl)cc3)c2O[C@@H]1CN(C)Cc1ccc(C(=O)Nc2ccccc2N)cc1 | 2.38 µM
C[C@H](CO)N1C[C@H](C)[C@H](CN(C)CC2CCCCC2)Oc2ccc(NC(=O)Nc3cccc4ccccc34)cc2C1=O | 14.9 µM
Cc1ccc(S(=O)(=O)Nc2ccc3c(c2)C(=O)N([C@H](C)CO)C[C@@H](C)[C@@H](CN(C)Cc2ccc(C(=O)Nc4ccccc4N)cc2)O3)cc1 | 1.28 µM
Cc1ccc(S(=O)(=O)Nc2ccc3c(c2)C(=O)N([C@@H](C)CO)C[C@@H](C)[C@H](CN(C)Cc2ccc(C(F)(F)F)cc2)OCCCC[C@H](C)O3)cc1 | 13.3 µM
Nc1ccc(-c2cc3ccccc3c(=O)o2)cc1 | 0.05 µM
CCOC(=O)[C@]12Cc3ccc(C)cc3[C@H]1N(C1CCCCC1)C(=O)c1ccccc12 | 3.95 µM
Cc1cc(-c2nc3ccccc3s2)ccc1N | 0.0502 µM
O=C(Nc1ccccc1F)N1CCCCN2[C@H](CO)[C@H](c3ccc(/C=C/c4ccccc4)cc3)[C@H]2C1 | 4.41 µM
Cc1[nH][nH]c(=O)c1C(c1c(C)[nH][nH]c1=O)c1cn(Cc2ccc(Cl)c(Cl)c2)c2ccccc12 | 13.5 µM
C[C@@H]1CN([C@@H](C)CO)C(=O)Cc2cc(N(C)C)ccc2O[C@H]1CN(C)Cc1ccc(C(=O)Nc2ccccc2N)cc1 | 2.38 µM
C=C1C(=O)C=C[C@]2(C)C[C@@H]3OC(=O)[C@](C)(O)[C@H]3C[C@@H]12 | 11.8 µM
COc1cc(C(=O)N2CCC(N3CCN(C)CC3)CC2)ccc1Nc1ncc2c(n1)N(C)c1ccccc1C(=O)N2C | 11.4 µM
COc1ccc(/C=C/C(=O)c2cc(F)ccc2OC(=O)c2ccccc2OC)cc1OC | 13.9 µM
Cc1cccc(CN2C(=O)/C(=C\c3ccc(C(=O)NCCCN4CCN(C)CC4)cc3)Oc3ccccc32)c1 | 11.2 µM
O=C1Nc2cc(C(=O)NCCN3CCCCCC3)ccc2S/C1=C\c1ccccc1 | 10.7 µM
COC(=O)C[C@@H]1CC[C@@H]2[C@@H](COc3ccc(NC(=O)Nc4ccc(C#N)cc4)cc3C(=O)N2C)O1 | 14.4 µM

SMILES | AC35
N=c1ccn2c(n1)O[C@H]1[C@H](O)[C@@H](CO)O[C@H]12 | 1.37 µM
COc1ccc([Si](C)(C)[C@H]2[C@H](CCO)O[C@@]3(C(=O)N(c4ccccc4)c4ccccc43)[C@@H]2C)cc1 | 10.5 µM
Cc1ccc(S(=O)(=O)Nc2ccc3c(c2)C(=O)N([C@H](C)CO)C[C@H](C)[C@@H](CN(C)Cc2ccc(C(F)(F)F)cc2)OCCCC[C@H](C)O3)cc1 | 10 µM
C[C@H](O)C#Cc1ccc2c(c1)O[C@@H](CN(C)Cc1ccc(-c3ccccc3)cc1)[C@H](C)CN([C@@H](C)CO)S2(=O)=O | 3.54 µM and 6.95 µM
O=C(NC(c1ccc(F)cc1)c1ccc2ccccc2n1)C1CCN(Cc2cccc(C(F)(F)F)c2)CC1 (centres undefined) | 20 µM
CC(=O)OC1CC(OC2C(O)CC(OC3C(O)CC(OC4CCC5(C)C(CCC6C5CCC5(C)C(C7=CC(=O)OC7)CCC65O)C4)OC3C)OC2C)OC(C)C1OC1OC(CO)C(O)C(O)C1O (centres undefined) | 0.0996 µM
C[C@H]1CCCCO[C@H](CN(C)Cc2ccc(C(F)(F)F)cc2)[C@@H](C)CN([C@@H](C)CO)C(=O)c2cc(NC(=O)Nc3ccccc3)ccc2O1 | 22.4 µM
O=C(/C=C/c1cc(Br)ccc1O)c1ccco1 | 17.7 µM
Nc1nc(=S)c2[nH]cnc2[nH]1 | 1.81 µM
CCc1nc(N)nc(N)c1-c1ccc(Cl)cc1 | 6.43 µM
O=C1NC(=O)N(Cc2ccco2)C(=O)/C1=C/C=C/c1ccco1 | 10.3 µM
COc1ccccc1C(CCNCc1ccc(N(C)C)cc1)c1ccc(OC(C)C)cc1 (centres undefined) | 4.74 µM
Nc1ccc(Cn2ccc3c4c(N)nc(N)nc4ccc32)cc1 | 0.137 µM
COc1ccc(/C=C/C(=O)c2ccc(C(=O)/C=C/c3ccc(OC)c(OC)c3)cc2)cc1OC | 15.1 µM
Cc1cc(C)cc(N2C(=O)NC(=O)/C(=C\C=C\c3ccco3)C2=O)c1 | 7.27 µM
N#C[C@H]1[C@H](c2ccc(C#Cc3ccccc3F)cc2)[C@@H](CO)N1C(=O)C1CCCCC1 | 12.9 µM
C[C@H](CO)N1C[C@H](C)[C@H](CN(C)Cc2ccc(C(=O)Nc3ccccc3N)cc2)Oc2ccc(NC(=O)C3CC3)cc2CC1=O | 0.74 µM
O=c1[nH]c(=O)n([C@H]2C[C@H](O)[C@@H](CO)O2)cc1C(F)(F)F | 15.6 µM
C[C@H](CO)N1C[C@H](C)[C@H](CN(C)Cc2ccc(C(=O)Nc3ccccc3N)cc2)Oc2c(cccc2N(C)C)C1=O | 0.615 µM
O=C(Nc1ccc(F)cc1)N1CCCCN2[C@@H](CO)[C@H](c3ccc(C4=CCCCC4)cc3)[C@@H]2C1 | 8.45 µM
CC12CCC3C(CCC4(O)CC(O)CCC34C=NO)C1(O)CCC2C1=COC(=O)C1 (centres undefined) | 0.155 µM

SMILES | AC35
C[C@H]1CN([C@@H](C)CO)C(=O)c2cc(N(C)C)ccc2O[C@@H]1CN(C)Cc1ccc(C(=O)Nc2ccccc2N)cc1 | 0.975 µM
COc1ccc(CC(N)c2csc(NC(=O)Nc3cccc(C(F)(F)F)c3)n2)cc1 (centres undefined) | 6.15 µM
C[C@]12CC[C@H](O)C[C@H]1CC[C@@H]1[C@@H]2CC[C@]2(C)[C@@H](C3=CC(=O)OC3)CC[C@]12O | 2.6 µM
CC(C)(C)[S@](=O)N1Cc2cc(C(=O)NCC(F)(F)F)nc(-c3cccc(-c4cccc(F)c4)c3)c2[C@@H]1CCO | 0.139 µM
Nc1nc(=S)c2ncn([C@@H]3O[C@H](CO)[C@@H](O)[C@H]3O)c2[nH]1 | 2.56 µM
Cn1ccc2cc(-c3ccc4ncnc(NCc5cccs5)c4c3)ccc21 | 16.6 µM
C[C@H]1CN([C@@H](C)CO)C(=O)c2cc(N(C)C)ccc2O[C@H]1CN(C)Cc1ccc(C(=O)Nc2ccccc2N)cc1 | 0.298 µM
O=C1NC(=O)N(c2ccccc2)C(=O)/C1=C\C=C\c1ccccc1 | 5.21 µM
C[C@@H]1CN([C@H](C)CO)C(=O)c2cc(NC(=O)c3ccccc3)ccc2O[C@@H](C)CCCCO[C@H]1CN(C)C(=O)Nc1cccc2ccccc12 | 1.54 µM
C[C@H](CO)N1C[C@H](C)[C@H](CN(C)Cc2ccc(Oc3ccccc3)cc2)Oc2ccc(NC(=O)Cn3cnnn3)cc2CC1=O | 6.59 µM
CCCCOc1ccc(NC(=O)C(=O)NCCCn2ccnc2)cc1 | 13.7 µM
O=C1/C(=C\c2ccccc2)CN(C(=O)CCN2CCCCC2)C/C1=C/c1ccccc1 | 3.95 µM
C[C@@H]1CN([C@@H](C)CO)C(=O)c2cc(NS(=O)(=O)c3ccc(Cl)cc3)ccc2O[C@@H]1CN(C)Cc1ccc(C(=O)Nc2ccccc2N)cc1 | 9.68 µM
CCc1cccc2c(C(=O)CN3C(=O)NC4(CCCCC4)C3=O)c[nH]c12 | 8.59 µM
Cc1cc2sc3ccc(C#CC4(O)CCCCC4)cc3c(=O)c2cc1C | 21.6 µM
C(=N\Nc1nc2ccccc2s1)/c1ccccn1 | 4.83 µM
CC(C)c1oc(=O)cc2c1[C@@H](O)[C@H]1OC(=O)[C@@]3(C)CC[C@@H](O)[C@@]2(C)C13 (some centres undefined) | 19.7 µM
CCCCCCCCNC(C)C(O)c1ccc(SC(C)C)cc1 (centres undefined) | 12.9 µM
CN1C(=O)c2cc(NC(=O)c3ccc(C(F)(F)F)cc3)ccc2OC[C@@H]2O[C@@H](CC(=O)NC3Cc4ccccc4C3)CC[C@H]21 | 7.45 µM
CCCCC[C@H](C)N1C[C@H](COCc2ccccc2)Oc2cc(N3CC[C@@H](N(C)C)C3)ccc2S1(=O)=O | 6.56 µM
O=c1ccc2[n+]([O-])c3ccc(O)cc3oc-2c1 | 5.65 µM
